In US7601745B2, “Heterocyclic NF-kB inhibitors” (4SC AG, priority 2004, dated 2009):

What follows are compounds tested on A549-NF-κB-SEAP reporter cells (assay: Inhibition of NF-κB-induced inflammation ([…] NINA Instant Assay, SEAP reporter)). Conditions: NF-κB inflammation assay.
Format: cell-based
Description: For the determination of anti-inflammatory activity of the compounds the […]® NINA Instant Assay from Cell Culture Service GmBH was used. This assay is based on recombinant A549-NF-κB-SEAP reporter cells preseeded in 96-well flat bottom plates. As the transfected reportergen for SEAP (secreted embryonic alkaline phosphatase) is under transcriptional control of a NF-κB-responsive element, the expression of this reporter is activated upon stimulation with TNF-α. SEAP secretion into the culture supernatant can be detected by the chemiluminescent substrate CSPD®. Test compounds that inhibit the NF-κB activation show reduced SEAP activity and reduced luminescent readout.
Following 18 h of reactivation at 37° C., 5% CO2 and 90% relative humidity, the cells were incubated with 0.01 up to 100 μM of test compound for 4.5 h before stimulation with 2 ng/ml TNF-α. After stimulation with TNF-α for 22 h endogenous phosphatases were inactivated and CSPD® substrate was supplied for 40 min. SEAP activity then was quantified by measuring luminescence as relative light units (RLU) using a Tecan Ultra reader. Each data point was recorded in quadruplicates and EC50 values were calculated via fitting function and the Microsoft Excel Solver.
For `N=C(NC(=O)c1coc(NC(=O)c2ccc(C(F)(F)F)c(F)c2)n1)Nc1nc2ccccc2[nH]1` [compound 27], the “Biological activity (inhibition in the NF-κB inflammation assay)” value was “+++ (“+++” stands for 90-100% inhibition)”.
In the case of `NC(=Nc1nc2ccccc2[nH]1)NC(=O)c1csc(NC(=O)c2ccc(C(F)(F)F)cc2F)n1` [compound 53], the “Biological activity (inhibition in the NF-κB inflammation assay)” value is reported as “+++ (“+++” stands for 90-100% inhibition)”.
With `O=C(Nc1nc2ccc([N+](=O)[O-])cc2[nH]1)c1csc(NC(=O)c2ccccc2OC(F)(F)F)n1` [compound 43] the “Biological activity (inhibition in the NF-κB inflammation assay)” value was “+++ (“+++” stands for 90-100% inhibition)”.
`CCCS(=O)(=O)c1ccc2[nH]c(NC(=O)c3csc(NC(=O)c4ccccc4OC(F)(F)F)n3)nc2c1` [compound 47] was tested, and the “Biological activity (inhibition in the NF-κB inflammation assay)” value was “+++ (“+++” stands for 90-100% inhibition)”.

Same assay, conditions: compounds of formula (I); TNF-α stimulated reporter cells; test concentration not given
`O=C(O)C1=C(C(=O)N2CCC(c3nc(C(=O)N4CCN(c5cccc(C(F)(F)F)c5)CC4)cs3)CC2)CCCC1` [compound 190] was tested, and the “Biological activity (NF-κB inflammation assay, inhibition)” value was “+ (“+” stands for 50-80% inhibition)”.
With `N#Cc1ccc(C(=O)N2CCC(c3nc(C(=O)N4CCN(c5cccc(C(F)(F)F)c5)CC4)cs3)CC2)cc1` [compound 70] the “Biological activity (NF-κB inflammation assay, inhibition)” value was “++ (“++” means 80-90%)”.
For `O=C(c1csc(C2CCN(C(=O)c3ccccc3OC(F)(F)F)CC2)n1)N1CCC(n2nnc3ccccc32)CC1` [compound 111], the “Biological activity (NF-κB inflammation assay, inhibition)” value was “+ (“+” stands for 50-80% inhibition)”.
`O=C(c1csc(C2CCN(S(=O)(=O)c3ccccc3)CC2)n1)N1CCN(c2cccc(C(F)(F)F)c2)CC1` [compound 208] was tested, and the “Biological activity (NF-κB inflammation assay, inhibition)” value was “+ (“+” stands for 50-80% inhibition)”.
With `O=C(c1csc(C2CCN(C(=O)c3cc(-c4ccc(Cl)cc4)oc3C(F)(F)F)CC2)n1)N1CCN(c2cccc(C(F)(F)F)c2)CC1` [compound 218] the “Biological activity (NF-κB inflammation assay, inhibition)” value was “+++ (“+++” stands for 90-100% inhibition)”.
With `O=C(c1csc(C2CCN(S(=O)(=O)c3ccc(OC(F)(F)F)cc3)CC2)n1)N1CCN(c2cccc(C(F)(F)F)c2)CC1` [compound 205] the “Biological activity (NF-κB inflammation assay, inhibition)” value was “+ (“+” stands for 50-80% inhibition)”.
`O=C(c1csc(C2CCN(c3ccc4c(c3)OCO4)CC2)n1)N1CCN(c2cccc(C(F)(F)F)c2)CC1` [compound 156] was tested, and the “Biological activity (NF-κB inflammation assay, inhibition)” value was “+ (“+” stands for 50-80% inhibition)”.
For `O=C(c1csc(C2CCN(S(=O)(=O)c3ccc(Br)cc3)CC2)n1)N1CCN(c2cccc(C(F)(F)F)c2)CC1` [compound 199], the “Biological activity (NF-κB inflammation assay, inhibition)” value was “+ (“+” stands for 50-80% inhibition)”.
In the case of `CC(c1cc2ccccc2[nH]1)N(C)C(=O)c1csc(C2CCN(C(=O)c3ccccc3OC(F)(F)F)CC2)n1` (stereo not shown) [compound 145], the “Biological activity (NF-κB inflammation assay, inhibition)” value is reported as “+ (“+” stands for 50-80% inhibition)”.
`O=C(c1csc(C2CCN(C(=O)c3ccco3)CC2)n1)N1CCN(c2cccc(C(F)(F)F)c2)CC1` [compound 230] was tested, and the “Biological activity (NF-κB inflammation assay, inhibition)” value was “+ (“+” stands for 50-80% inhibition)”.
`COc1nc(OC)nc(N2CCN(C(=O)c3csc(C4CCN(C(=O)Cc5ccc(F)cc5)CC4)n3)CC2)n1` [compound 126] was tested, and the “Biological activity (NF-κB inflammation assay, inhibition)” value was “+ (“+” stands for 50-80% inhibition)”.
In the case of `O=C(O)c1cc(Cl)c(Cl)cc1C(=O)N1CCC(c2nc(C(=O)N3CCN(c4cccc(C(F)(F)F)c4)CC3)cs2)CC1` [compound 187], the “Biological activity (NF-κB inflammation assay, inhibition)” value is reported as “+ (“+” stands for 50-80% inhibition)”.
With `O=C(c1csc(C2CCN(Cc3ccc(OC(F)(F)F)cc3)CC2)n1)N1CCN(c2cccc(C(F)(F)F)c2)CC1` [compound 172] the “Biological activity (NF-κB inflammation assay, inhibition)” value was “+ (“+” stands for 50-80% inhibition)”.
With `O=C(O)c1ccccc1C(=O)N1CCC(c2nc(C(=O)N3CCN(c4cccc(C(F)(F)F)c4)CC3)cs2)CC1` [compound 185] the “Biological activity (NF-κB inflammation assay, inhibition)” value was “+ (“+” stands for 50-80% inhibition)”.
With `O=C(Cc1ccc(F)cc1)N1CCC(c2nc(C(=O)N3CCC(n4nnc5ccccc54)CC3)cs2)CC1` [compound 182] the “Biological activity (NF-κB inflammation assay, inhibition)” value was “+ (“+” stands for 50-80% inhibition)”.
`CN1CCOc2cc(C(=O)N3CCC(c4nc(C(=O)N5CCN(c6cccc(C(F)(F)F)c6)CC5)cs4)CC3)ccc21` [compound 210] was tested, and the “Biological activity (NF-κB inflammation assay, inhibition)” value was “++ (“++” means 80-90%)”.
With `COc1nc(OC)nc(N2CCC(c3nc(C(=O)N4CCN(c5cccc(C(F)(F)F)c5)CC4)cs3)CC2)n1` [compound 176] the “Biological activity (NF-κB inflammation assay, inhibition)” value was “+ (“+” stands for 50-80% inhibition)”.
In the case of `Cc1noc(C)c1S(=O)(=O)N1CCC(c2nc(C(=O)N3CCN(c4cccc(C(F)(F)F)c4)CC3)cs2)CC1` [compound 192], the “Biological activity (NF-κB inflammation assay, inhibition)” value is reported as “+ (“+” stands for 50-80% inhibition)”.
With `Cc1nnsc1C(=O)N1CCC(c2nc(C(=O)N3CCN(c4cccc(C(F)(F)F)c4)CC3)cs2)CC1` [compound 221] the “Biological activity (NF-κB inflammation assay, inhibition)” value was “+ (“+” stands for 50-80% inhibition)”.
For `O=C(c1csc(C2CCN(c3ccccn3)CC2)n1)N1CCN(c2cccc(C(F)(F)F)c2)CC1` [compound 123], the “Biological activity (NF-κB inflammation assay, inhibition)” value was “++ (“++” means 80-90%)”.
For `O=C(c1csc(C2CCN(C(=O)c3ccccc3OC(F)(F)F)CC2)n1)N(Cc1ccc(Cl)cc1)Cc1ccc(Cl)cc1` [compound 110], the “Biological activity (NF-κB inflammation assay, inhibition)” value was “+ (“+” stands for 50-80% inhibition)”.
For `COc1ccccc1N1CCC(c2nc(C(=O)N3CCN(c4cccc(C(F)(F)F)c4)CC3)cs2)CC1` [compound 158], the “Biological activity (NF-κB inflammation assay, inhibition)” value was “+ (“+” stands for 50-80% inhibition)”.
With `O=C(c1csc(C2CCN(C(=O)c3cccs3)CC2)n1)N1CCN(c2cccc(C(F)(F)F)c2)CC1` [compound 212] the “Biological activity (NF-κB inflammation assay, inhibition)” value was “+ (“+” stands for 50-80% inhibition)”.
`O=C(c1csc(C2CCN(C(=O)c3ccccc3OC(F)(F)F)CC2)n1)N1CCN(c2nc3ccccc3n2Cc2ccc(F)cc2)CC1` [compound 98] was tested, and the “Biological activity (NF-κB inflammation assay, inhibition)” value was “+++ (“+++” stands for 90-100% inhibition)”.
For `COc1ccc(OC)c(N2CCC(c3nc(C(=O)N4CCN(c5cccc(C(F)(F)F)c5)CC4)cs3)CC2)c1` [compound 29], the “Biological activity (NF-κB inflammation assay, inhibition)” value was “++ (“++” means 80-90%)”.
In the case of `O=C(c1cccnc1)N1CCC(c2nc(C(=O)N3CCN(c4cccc(C(F)(F)F)c4)CC3)cs2)CC1` [compound 222], the “Biological activity (NF-κB inflammation assay, inhibition)” value is reported as “+ (“+” stands for 50-80% inhibition)”.
For `O=C(O)c1cccc(O)c1C(=O)N1CCC(c2nc(C(=O)N3CCN(c4cccc(C(F)(F)F)c4)CC3)cs2)CC1` [compound 186], the “Biological activity (NF-κB inflammation assay, inhibition)” value was “+ (“+” stands for 50-80% inhibition)”.
For `O=C(c1csc(C2CCN(S(=O)(=O)c3c(F)c(F)c(F)c(F)c3F)CC2)n1)N1CCN(c2cccc(C(F)(F)F)c2)CC1` [compound 193], the “Biological activity (NF-κB inflammation assay, inhibition)” value was “+ (“+” stands for 50-80% inhibition)”.
For `O=C(c1ccc(C(F)(F)F)c(F)c1)N1CCC(c2nc(C(=O)N3CCN(c4cccc(C(F)(F)F)c4)CC3)cs2)CC1` [compound 215], the “Biological activity (NF-κB inflammation assay, inhibition)” value was “+++ (“+++” stands for 90-100% inhibition)”.
For `O=C(c1csc(C2CCN(CCC(c3ccccc3)c3ccccc3)CC2)n1)N1CCN(c2cccc(C(F)(F)F)c2)CC1` [compound 35], the “Biological activity (NF-κB inflammation assay, inhibition)” value was “+++ (“+++” stands for 90-100% inhibition)”.

Same assay, conditions: compounds of formula (II); TNF-α stimulated reporter cells; test concentration not given
In the case of `O=C(c1csc(N2CCN(C(=O)c3ccccc3OC(F)(F)F)CC2)n1)N1CCN(c2cccc(C(F)(F)F)c2)CC1` [compound 39], the “Biological activity (NF-κB inflammation assay, inhibition)” value is reported as “+++ (“+++” stands for 90-100% inhibition)”.
With `O=C(c1csc(N2CCN(c3ccc(F)cc3)CC2)n1)N1CCN(c2cccc(C(F)(F)F)c2)CC1` [compound 69] the “Biological activity (NF-κB inflammation assay, inhibition)” value was “++ (“++” means 80-90%)”.
`N#Cc1ccc(C(=O)N2CCN(c3nc(C(=O)N4CCN(c5cccc(C(F)(F)F)c5)CC4)cs3)CC2)cc1` [compound 61] was tested, and the “Biological activity (NF-κB inflammation assay, inhibition)” value was “+++ (“+++” stands for 90-100% inhibition)”.
`O=C(Nc1nc(C(=O)N2CCN(C(c3ccccc3)c3ccccc3)CC2)cs1)c1ccccc1OC(F)(F)F` [compound 58] was tested, and the “Biological activity (NF-κB inflammation assay, inhibition)” value was “++ (“++” means 80-90%)”.
`N#Cc1ccc(CN2CCN(c3nc(C(=O)N4CCN(c5cccc(C(F)(F)F)c5)CC4)cs3)CC2)cc1` [compound 62] was tested, and the “Biological activity (NF-κB inflammation assay, inhibition)” value was “+++ (“+++” stands for 90-100% inhibition)”.
For `CC(=O)c1ccc(N2CCN(c3nc(C(=O)N4CCN(c5cccc(C(F)(F)F)c5)CC4)cs3)CC2)cc1` [compound 66], the “Biological activity (NF-κB inflammation assay, inhibition)” value was “++ (“++” means 80-90%)”.

Same assay, conditions: compounds of formula (Ia); TNF-α stimulated reporter cells; test concentration not given
In the case of `O=C(Nc1ccc2c(c1)OCCO2)N1CCC(c2nc(C(=O)N3CCN(c4cccc(C(F)(F)F)c4)CC3)cs2)CC1` [compound 75], the “Biological activity (NF-κB inflammation assay, inhibition)” value is reported as “++ (“++” means 80-90%)”.
`O=C(NCCc1cccs1)N1CCC(c2nc(C(=O)N3CCN(c4cccc(C(F)(F)F)c4)CC3)cs2)CC1` [compound 77] was tested, and the “Biological activity (NF-κB inflammation assay, inhibition)” value was “+++ (“+++” stands for 90-100% inhibition)”.
With `O=C(Nc1cc(F)cc2c1OCCO2)N1CCC(c2nc(C(=O)N3CCN(c4cccc(C(F)(F)F)c4)CC3)cs2)CC1` [compound 74] the “Biological activity (NF-κB inflammation assay, inhibition)” value was “++ (“++” means 80-90%)”.
For `O=C(Nc1ccc(F)cc1)N1CCC(c2nc(C(=O)N3CCN(c4cccc(C(F)(F)F)c4)CC3)cs2)CC1` [compound 143], the “Biological activity (NF-κB inflammation assay, inhibition)” value was “+ (“+” stands for 50-80% inhibition)”.
With `COc1cc(NC(=O)N2CCC(c3nc(C(=O)N4CCN(c5cccc(C(F)(F)F)c5)CC4)cs3)CC2)cc(OC)c1OC` [compound 81] the “Biological activity (NF-κB inflammation assay, inhibition)” value was “++ (“++” means 80-90%)”.

Same assay, conditions: compounds of formula (Ib); TNF-α stimulated reporter cells; test concentration not given
For `Cc1sc(C2CCN(C(=O)c3ccccc3OC(F)(F)F)CC2)nc1CC(=O)N1CCN(c2cccc(Cl)c2)CC1` [compound 128], the “Biological activity (NF-κB inflammation assay, inhibition)” value was “+++ (“+++” stands for 90-100% inhibition)”.
